Each structure is given as a SMILES string. Activity calls are given as the source filed them. No cut-off for these calls is given here. Numbered stars: 1 amine (or outer) side, 2 acyl side, 3 side chain; on linkers, the order of the positions; unused ones are H or OH. Square brackets hold non-standard residues; d marks the D form. Peptide text beside a SMILES is read from it. * marks the point of attachment. Phe(4-CH2SO3H) = N[C@@H](Cc1ccc(CS(=O)(=O)O)cc1)C(=O)O; C20 diacid = O=C(O)CCCCCCCCCCCCCCCCCCC(=O)*; sY = N[C@@H](Cc1ccc(OS(=O)(=O)O)cc1)C(=O)O; C18 diacid = O=C(O)CCCCCCCCCCCCCCCCC(=O)*; NMe1Nal = CN[C@@H](Cc1cccc2ccccc12)C(=O)O; γGlu = O=C(O)[C@H](CCC(=O)[*:2])N[*:1]; 1Nal = N[C@@H](Cc1cccc2ccccc12)C(=O)O; C14 diacid = O=C(O)CCCCCCCCCCCCC(=O)*; NMeF = CN[C@@H](Cc1ccccc1)C(=O)O; dNMeD = CN[C@H](CC(=O)O)C(=O)O; Nle = CCCC[C@H](N)C(=O)O; AEEA = NCCOCCOCC(=O)O

Data on eleven molecules can be found in ChEMBL document CHEMBL4368907 (J Med Chem, 2019).

The target of series [1] is T1, Gastrin/cholecystokinin type B receptor (Homo sapiens) (UniProt P32239).
T1 sequence (whole entry): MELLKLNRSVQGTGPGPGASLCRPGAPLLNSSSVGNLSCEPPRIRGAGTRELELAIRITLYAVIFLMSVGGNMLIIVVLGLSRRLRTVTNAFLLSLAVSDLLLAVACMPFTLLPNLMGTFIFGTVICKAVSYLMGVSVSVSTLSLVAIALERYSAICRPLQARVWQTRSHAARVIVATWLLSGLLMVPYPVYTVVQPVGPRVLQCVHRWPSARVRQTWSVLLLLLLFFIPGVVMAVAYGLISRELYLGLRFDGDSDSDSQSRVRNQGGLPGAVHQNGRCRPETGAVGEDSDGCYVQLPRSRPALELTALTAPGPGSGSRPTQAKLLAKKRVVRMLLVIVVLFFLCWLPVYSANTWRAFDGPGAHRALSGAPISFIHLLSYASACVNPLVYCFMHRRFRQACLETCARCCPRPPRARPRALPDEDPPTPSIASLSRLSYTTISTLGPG
The series can be described thus: (§1) Displacement of [125I]-CCK-8 from human CCK2R expressed in human 1321N1 cell membranes after 2 hrs by SPA assay. In general terms: Loss of bound radioactivity is the signal in a displacement assay; it reports binding, not function.

Series [2] addresses T2, Cholecystokinin receptor type A (Homo sapiens) (UniProt P32238).
T2 sequence (whole entry): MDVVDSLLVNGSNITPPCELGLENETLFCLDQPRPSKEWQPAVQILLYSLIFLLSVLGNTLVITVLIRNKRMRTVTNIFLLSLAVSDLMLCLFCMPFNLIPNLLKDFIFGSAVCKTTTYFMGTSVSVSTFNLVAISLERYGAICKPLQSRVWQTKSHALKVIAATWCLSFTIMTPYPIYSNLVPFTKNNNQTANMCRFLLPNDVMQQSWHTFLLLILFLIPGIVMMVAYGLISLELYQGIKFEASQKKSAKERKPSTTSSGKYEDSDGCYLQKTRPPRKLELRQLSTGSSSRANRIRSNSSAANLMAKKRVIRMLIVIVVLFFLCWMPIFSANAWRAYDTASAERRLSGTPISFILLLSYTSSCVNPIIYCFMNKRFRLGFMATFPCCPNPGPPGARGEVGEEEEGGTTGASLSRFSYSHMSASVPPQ
The series can be described thus: (§2) Agonist activity at human CCK1R expressed in human 1321N1 cells assessed as IP1 accumulation after 1 hr by HTRF assay. Format: functional, cell-based.

For series [3], the target named is T1, Gastrin/cholecystokinin type B receptor (Homo sapiens). In words: (§3) Agonist activity at human CCK2R expressed in human 1321N1 cells assessed as IP1 accumulation after 1 hr by HTRF assay. Format: functional, cell-based.
For series [4], the target named is T2, Cholecystokinin receptor type A (Homo sapiens). In words: (§4) Displacement of [125I]-CCK-8 from human CCK1R expressed in human 1321N1 cell membranes after 2 hrs by SPA assay.
Series [5] addresses T3, Cholecystokinin receptor type A (Homo sapiens, UniProt P32238).
T3 sequence (P32238 whole entry): T2 sequence (whole entry)
Described as §2. The series is classed as functional, cell-based.

The target in series [6] is T3, Cholecystokinin receptor type A. The description is as §4.
The nature of series [7]: Terminal half life in Ellegaard Gottingen minipig at 5 nmol/kg, iv by LC-MS/MS analysis. Format: ADME, organism-based, Sus scrofa. The conditions noted are these: pig, in vivo, read-out: beta t1/2 (converted).
Series [8] has as its target T4, Gastrin/cholecystokinin type B receptor (Homo sapiens, UniProt P32239).
T4 sequence (P32239 whole entry): T1 sequence (whole entry)
Described as §1.

Series [9] concerns the target T4, Gastrin/cholecystokinin type B receptor. Described as §3. Format: functional, cell-based.

For `CCCC[C@H](NC(=O)[C@H](Cc1ccc(CS(=O)(=O)O)cc1)NC(=O)[C@H](CC(=O)O)NC(=O)COCCOCCNC(=O)COCCOCCNC(=O)CC[C@H](NC(=O)CCCCCCCCCCCCCCCCC(=O)O)C(=O)O)C(=O)NCC(=O)N[C@@H](Cc1c[nH]c2ccccc12)C(=O)N[C@@H](CCCC)C(=O)N(C)[C@H](CC(=O)O)C(=O)N(C)[C@@H](Cc1ccccc1)C(=O)O`, the pIC50 result in series [1] and in [4] was “inactive” in each case. Further, the pEC50 entry in series [2] and in [3] was “inactive” in each case.
For `CCCC[C@H](NC(=O)[C@H](Cc1ccc(OS(=O)(=O)O)cc1)NC(=O)[C@H](CC(=O)O)NC(=O)COCCOCCNC(=O)COCCOCCNC(=O)CC[C@H](NC(=O)CCCCCCCCCCCCCCCCC(=O)O)C(=O)O)C(=O)NCC(=O)N[C@@H](Cc1c[nH]c2ccccc12)C(=O)N[C@@H](CC(C)C)C(=O)N[C@@H](CC(=O)O)C(=O)N[C@@H](Cc1ccccc1)C(N)=O`, the pIC50 entry in series [1] and in series [4] was “Active” throughout. The pEC50 entry in [2] and in series [3] was “Active” each time.
Take `CCCC[C@H](NC(=O)[C@H](Cc1c[nH]c2ccccc12)NC(=O)CNC(=O)[C@H](CC(C)C)NC(=O)[C@H](Cc1ccc(CS(=O)(=O)O)cc1)NC(=O)[C@H](CC(=O)O)NC(=O)COCCOCCNC(=O)COCCOCCNC(=O)CC[C@H](NC(=O)CCCCCCCCCCCCC(=O)O)C(=O)O)C(=O)N(C)[C@H](CC(=O)O)C(=O)N(C)[C@@H](Cc1ccccc1)C(N)=O` ({C14 diacid-γGlu-AEEA-AEEA}-D[Phe(4-CH2SO3H)]LGW[Nle][dNMeD][NMeF]-NH2): the EC50 (commonly the concentration giving half of the maximal effect) in series [5] was 0.182 nM. Also, the 50% inhibitory concentration (IC50) (usually the concentration needed to halve the response being measured) in [6] is 0.155 nM. Also, the half-life in [7] is 2 h.
Consider `CCCC[C@H](NC(=O)[C@H](Cc1c[nH]c2ccccc12)NC(=O)CNC(=O)[C@H](CC(C)C)NC(=O)[C@H](Cc1ccc(OS(=O)(=O)O)cc1)NC(=O)[C@H](CC(=O)O)NC(=O)COCCOCCNC(=O)COCCOCCNC(=O)CC[C@H](NC(=O)CCCCCCCCCCCCCCCCC(=O)O)C(=O)O)C(=O)N(C)[C@H](CC(=O)O)C(=O)N(C)[C@@H](Cc1cccc2ccccc12)C(N)=O` ({C18 diacid-γGlu-AEEA-AEEA}-D[sY]LGW[Nle][dNMeD][NMe1Nal]-NH2), for which the half-maximal inhibitory concentration (IC50) in series [8] is 2040 nM. In addition, the EC50 in series [5] was 0.407 nM; in series [9] it was 151 nM. In series [7], the half-life is 147 h.
Regarding `CCCC[C@H](NC(=O)[C@H](Cc1ccc(OS(=O)(=O)O)cc1)NC(=O)[C@H](CC(=O)O)NC(=O)COCCOCCNC(=O)COCCOCCNC(=O)CC[C@H](NC(=O)CCCCCCCCCCCCCCCCC(=O)O)C(=O)O)C(=O)NCC(=O)N[C@@H](Cc1c[nH]c2ccccc12)C(=O)N[C@@H](C)C(=O)N[C@@H](CC(=O)O)C(=O)N[C@@H](Cc1ccccc1)C(N)=O` ({C18 diacid-γGlu-AEEA-AEEA}-D[sY][Nle]GWADF-NH2), the pIC50 entry in series [1] and in [4] was “inactive” throughout. For the same molecule, the pEC50 entry in [2] and in [3] was “inactive” throughout.
In the case of `CCCC[C@H](NC(=O)[C@H](Cc1ccc(OS(=O)(=O)O)cc1)NC(=O)[C@H](CC(=O)O)NC(=O)COCCOCCNC(=O)COCCOCCNC(=O)CC[C@H](NC(=O)CCCCCCCCCCCCCCCCC(=O)O)C(=O)O)C(=O)NCC(=O)N[C@@H](Cc1c[nH]c2ccccc12)C(=O)N[C@@H](CCC(=O)O)C(=O)N[C@@H](CC(=O)O)C(=O)N[C@@H](Cc1ccccc1)C(N)=O` ({C18 diacid-γGlu-AEEA-AEEA}-D[sY][Nle]GWEDF-NH2), the pIC50 result in [1] and in series [4] was “inactive” throughout. In addition, the pEC50 entry in series [2] and in series [3] was “inactive” in each case.
As to `CCCC[C@H](NC(=O)[C@H](Cc1ccc(OS(=O)(=O)O)cc1)NC(=O)[C@H](CC(=O)O)NC(=O)COCCOCCNC(=O)COCCOCCNC(=O)CC[C@H](NC(=O)CCCCCCCCCCCCCCCCC(=O)O)C(=O)O)C(=O)NCC(=O)N[C@@H](Cc1c[nH]c2ccccc12)C(=O)N[C@@H](Cc1ccccc1)C(=O)N[C@@H](CC(=O)O)C(=O)N[C@@H](Cc1ccccc1)C(N)=O` ({C18 diacid-γGlu-AEEA-AEEA}-D[sY][Nle]GWFDF-NH2), the pIC50 entry in [1] and in [4] was “inactive” in each case. Moreover, the pEC50 result in series [2] and in series [3] was “inactive” in each case.
`CCCC[C@H](NC(=O)[C@H](Cc1ccc(OS(=O)(=O)O)cc1)NC(=O)[C@H](CC(=O)O)NC(=O)COCCOCCNC(=O)COCCOCCNC(=O)CC[C@H](NC(=O)CCCCCCCCCCCCCCCCC(=O)O)C(=O)O)C(=O)NCC(=O)N[C@@H](Cc1c[nH]c2ccccc12)C(=O)N[C@@H](CCCCN)C(=O)N[C@@H](CC(=O)O)C(=O)N[C@@H](Cc1ccccc1)C(N)=O` ({C18 diacid-γGlu-AEEA-AEEA}-D[sY][Nle]GWKDF-NH2): the pIC50 entry in series [1] and in series [4] was “inactive” in each case. In addition, the pEC50 result in series [2] and in series [3] was “inactive” throughout.
With `CCCC[C@H](NC(=O)[C@H](Cc1ccc(OS(=O)(=O)O)cc1)NC(=O)[C@H](CC(=O)O)NC(=O)COCCOCCNC(=O)COCCOCCNC(=O)CC[C@H](NC(=O)CCCCCCCCCCCCCCCCC(=O)O)C(=O)O)C(=O)NCC(=O)N[C@@H](Cc1c[nH]c2ccccc12)C(=O)N[C@@H](CO)C(=O)N[C@@H](CC(=O)O)C(=O)N[C@@H](Cc1ccccc1)C(N)=O` ({C18 diacid-γGlu-AEEA-AEEA}-D[sY][Nle]GWSDF-NH2), the pIC50 result in series [1] and in [4] was “inactive” in each case. Further, the pEC50 result in series [2] and in series [3] was “inactive” in each case.
For the molecule `CCCC[C@H](NC(=O)[C@H](Cc1ccc(OS(=O)(=O)O)cc1)NC(=O)[C@H](CC(=O)O)NC(=O)COCCOCCNC(=O)COCCOCCNC(=O)CC[C@H](NC(=O)CCCCCCCCCCCCCCCCC(=O)O)C(=O)O)C(=O)NCC(=O)N[C@@H](Cc1c[nH]c2ccccc12)C(=O)N[C@@H](CCCC)C(=O)N(C)[C@H](CC(=O)O)C(=O)N[C@@H](Cc1cccc2ccccc12)C(N)=O` ({C18 diacid-γGlu-AEEA-AEEA}-D[sY][Nle]GW[Nle][dNMeD][1Nal]-NH2), the EC50 in series [5] was 0.363 nM; in [9], 89.1 nM. The IC50 in series [6] was 0.0741 nM. Besides, the half-life in [7] is 140 h.
With `CCCC[C@H](NC(=O)[C@H](Cc1c[nH]c2ccccc12)NC(=O)CNC(=O)[C@H](CC(C)C)NC(=O)[C@H](Cc1ccc(CS(=O)(=O)O)cc1)NC(=O)[C@H](CC(=O)O)NC(=O)COCCOCCNC(=O)COCCOCCNC(=O)CC[C@H](NC(=O)CCCCCCCCCCCCCCCCCCC(=O)O)C(=O)O)C(=O)N(C)[C@H](CC(=O)O)C(=O)N(C)[C@@H](Cc1ccccc1)C(N)=O` ({C20 diacid-γGlu-AEEA-AEEA}-D[Phe(4-CH2SO3H)]LGW[Nle][dNMeD][NMeF]-NH2), the concentration for a half-maximal effect (EC50) in series [5] is 0.372 nM. In series [6], this molecule showed a concentration for half-maximal inhibition (IC50) of 0.0407 nM. Moreover, in [7], the half-life was 153 h.
